Where a SMILES comes first, the peptide text is derived from it. [ ]: non-standard residue; d: D form. The star is where a group is joined. Sta = CC(C)C[C@H](N)[C@@H](O)CC(=O)O; Isovaleryl = CC(C)CC(=O)*

The target of the first assay is T1, human recombinant ICE (Homo sapiens, UniProt P29466).
T1 construct: highly purified human recombinant ICE (p20/p10) (Merck, Wayne, N.J.); purchased Merck, Wayne, N.J
T1 sequence (P29466 120-297 limits assumed): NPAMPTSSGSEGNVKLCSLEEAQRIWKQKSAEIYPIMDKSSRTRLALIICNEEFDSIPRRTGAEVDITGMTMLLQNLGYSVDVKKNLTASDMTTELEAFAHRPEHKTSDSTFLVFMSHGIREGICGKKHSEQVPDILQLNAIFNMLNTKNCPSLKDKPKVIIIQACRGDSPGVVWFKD
T1 sequence (P29466 317-404 limits assumed): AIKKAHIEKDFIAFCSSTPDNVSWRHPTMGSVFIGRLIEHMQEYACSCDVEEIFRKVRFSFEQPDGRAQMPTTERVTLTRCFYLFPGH
In words: ICE cleavage of actin in PC12 cell extracts, with protease inhibitors (SDS-PAGE, immunoblot). It counts as biochemical.
Settings: not given
On the procedure:
Cells were washed with ice-cold PBS twice and were extracted with Triton X-100® detergent (1%) in Hepes buffer (10 mM, pH=7.5). Supernatants were treated with ICE as follows: 50 μg of cellular protein extracted from semi-confluent cells grown in serum-containing media was incubated with 50 ng of highly purified human recombinant ICE (p20/p10) (Merck, Wayne, N.J.) at 37° C. for 2 hours in the presence of 10 mM dithiothreitol (DTT).
In order to determine whether any of the cellular proteins of relatively high abundance serve as ICE substrates, extracts prepared from PC12 pheochromocytoma cells (29), CSM14.1 cells (conditionally immortalized mesencephalic neuronal cells) (30, 31), and Rat-1 cells (25) were treated with highly purified human recombinant ICE under various conditions. The cleavage products were then analyzed by SDS-polyacrylamide gel electrophoresis.
Control was incubated in the absence of ICE.
A general note: A western blot detects proteins with antibodies after separation by electrophoresis.
In the case of `O=C(O)CI` [iodoacetate], the “inhibition of the generation of actin fragments by ICE” value (shortened to “inhibition”) is listed as “completely inhibited”.

Staying with this assay, now noted: cell extracts treated with ICE, 37° C., 2 hours.
Take “human α2-macroglobulin: granzyme B inhibitor, shown not to inhibit ICE”: the “inhibition” value is “not”. On to `O=S(=O)(F)Cc1ccccc1` [phenylmethylsulfonyl fluoride], for which the “inhibition” value was “not”. As to `CC(=O)N[C@@H](CC(C)C)C(=O)N[C@@H](CC(C)C)C(=O)N[C@H](C=O)CCCNC(=N)N` [leupeptin], the “inhibition” value was “not”. `CC(C)CC(=O)N[C@H](C(=O)N[C@H](C(=O)N[C@@H](CC(C)C)[C@@H](O)CC(=O)N[C@@H](C)C(=O)N[C@@H](CC(C)C)[C@@H](O)CC(=O)O)C(C)C)C(C)C` [pepstain] (Isovaleryl-VV[Sta]A[Sta]-OH): the “inhibition” value is reported as “not”. The same measure, in the same setting: the same measure for `CC(C)C[C@H](NC(=O)[C@H]1O[C@@H]1C(=O)O)C(=O)NCCCCN=C(N)N` [E-64]: “not”; for Ac-Tyr-Val-Ala-Asp-CHO: “completely inhibited”.

These data come from patent US6649364B1, “Anti-apoptotic compositions and methods using same” (The Regents of the University of California, priority 1995, dated 2003).
